Experimental data published in the RepoRT retention time repository (doi:10.1016/j.jchromb.2020.122105).

Tests used:
Conditions in all cases: stereoisomer not certain
[1] = RP, Waters CORTECS T3, 100 × 2.1 mm, 2.7 µm, 0.15 mL/min, estimated dead time 1.5 min; A: water + 0.1% formic acid, pH 3; B: methanol + 0.1% formic acid, pH 3; gradient (min/%B) 0/0 1/0 6/5 30/100 35/100 35.1/0 40/0
[2] = RP, Waters ACQUITY UPLC BEH C18, 100 × 2.1 mm, 1.7 µm, 0.1 mL/min, estimated dead time 2.2 min; A: water + 0.1% formic acid, pH 3; B: methanol + 0.1% formic acid, pH 3; gradient (min/%B) 0/5 5/5 25/95 25.1/100 35/100 35.1/5 45/5
[3] = RP, Waters CORTECS T3, 100 × 2.1 mm, 2.7 µm, 0.2 mL/min, estimated dead time 1.1 min; A: water + 0.045% formic acid + 0.11% ammonium hydroxide, pH 7; B: methanol; gradient (min/%B) 0/5 5/5 25/95 25.1/100 35/100 35.1/5 45/5
[4] = RP, Waters CORTECS T3, 100 × 2.1 mm, 2.7 µm, 0.3 mL/min, estimated dead time 0.73 min; A: water + 0.1% formic acid, pH 3; B: methanol + 0.1% formic acid, pH 3; gradient (min/%B) 0/5 5/5 25/100 30/100 30.1/5 35/5
[5] = RP, Waters CORTECS T3, 100 × 2.1 mm, 2.7 µm, 0.3 mL/min, estimated dead time 0.73 min; A: water + 0.1% formic acid, pH 3; B: methanol + 0.1% formic acid, pH 3; gradient (min/%B) 0/5 5/5 25/95 25.1/100 35/100 35.1/5 45/5
[6] = RP, Waters ACQUITY UPLC BEH C18, 100 × 2.1 mm, 1.7 µm, 0.1 mL/min, estimated dead time 2.2 min; A: water + 0.045% formic acid + 0.11% ammonium hydroxide, pH 7; B: methanol; gradient (min/%B) 0/5 5/5 25/95 25.1/100 35/100 35.1/5 45/5
[7] = RP, Waters CORTECS T3, 100 × 2.1 mm, 2.7 µm, 0.25 mL/min, estimated dead time 0.88 min; A: water + 0.1% formic acid, pH 3; B: methanol + 0.1% formic acid, pH 3; gradient (min/%B) 0/0 1/0 6/5 30/100 35/100 35.1/0 40/0
[8] = RP, Waters CORTECS T3, 100 × 2.1 mm, 2.7 µm, 0.3 mL/min, estimated dead time 0.73 min; A: water + 0.1% formic acid, pH 3; B: methanol + 0.1% formic acid, pH 3; gradient (min/%B) 0/0 1/0 6/5 30/100 35/100 35.1/0 40/0
[9] = RP, Waters ACQUITY UPLC BEH C18, 100 × 2.1 mm, 1.7 µm, 0.2 mL/min, estimated dead time 1.1 min; A: water + 0.025% formic acid + 20 mM ammonium acetate + 0.055% ammonium hydroxide, pH 7; B: methanol; gradient (min/%B) 0/5 5/5 25/100 30/100 30.1/5 35/5
[10] = RP, Waters CORTECS T3, 100 × 2.1 mm, 2.7 µm, 0.2 mL/min, estimated dead time 1.1 min; A: water + 0.1% formic acid, pH 3; B: methanol + 0.1% formic acid, pH 3; gradient (min/%B) 0/0 1/0 6/5 30/100 35/100 35.1/0 40/0
[11] = RP, Waters CORTECS T3, 100 × 2.1 mm, 2.7 µm, 0.1 mL/min, estimated dead time 2.2 min; A: water + 0.1% formic acid, pH 3; B: methanol + 0.1% formic acid, pH 3; gradient (min/%B) 0/0 1/0 6/5 30/100 35/100 35.1/0 40/0
[12] = RP, Waters CORTECS T3, 100 × 2.1 mm, 2.7 µm, 0.3 mL/min, estimated dead time 0.73 min; A: water + 0.1% formic acid, pH 3; B: methanol + 0.1% formic acid, pH 3; gradient (min/%B) 0/0 5/0 25/100 30/100 30.1/0 35/0
[13] = RP, Waters CORTECS T3, 100 × 2.1 mm, 2.7 µm, 0.1 mL/min, estimated dead time 2.2 min; A: water + 0.1% formic acid, pH 3; B: methanol + 0.1% formic acid, pH 3; gradient (min/%B) 0/5 5/5 25/95 25.1/100 35/100 35.1/5 45/5
[14] = RP, Waters ACQUITY UPLC BEH C18, 100 × 2.1 mm, 1.7 µm, 0.1 mL/min, estimated dead time 2.2 min; A: water + 0.1% formic acid, pH 3; B: methanol + 0.1% formic acid, pH 3; gradient (min/%B) 0/5 5/5 25/100 30/100 30.1/5 35/5
[15] = RP, Thermo Scientific Hypercarb, 150 × 2.1 mm, 5 µm, 0.1 mL/min, estimated dead time 3.3 min; A: water + 0.1% formic acid, pH 3; B: methanol + 0.1% formic acid, pH 3; gradient (min/%B) 0/5 5/5 20/100 35/100 35.1/5 45/5
[16] = RP, Waters ACQUITY UPLC BEH C18, 100 × 2.1 mm, 1.7 µm, 0.1 mL/min, estimated dead time 2.2 min; A: water + 0.1% formic acid, pH 3; B: methanol + 0.1% formic acid, pH 3; gradient (min/%B) 0/5 5/5 25/95 25.1/100 35/100 35.1/5 45/5; remark: listed apart in the source
[17] = RP, Waters CORTECS T3, 100 × 2.1 mm, 2.7 µm, 0.3 mL/min, estimated dead time 0.73 min; A: water + 0.1% formic acid, pH 3; B: methanol + 0.1% formic acid, pH 3; gradient (min/%B) 0/0 5/0 25/100 30/100 30.1/0 35/0; remark: listed apart in the source
[18] = RP, Waters CORTECS T3, 100 × 2.1 mm, 2.7 µm, 0.2 mL/min, estimated dead time 1.1 min; A: water + 0.1% formic acid, pH 3; B: methanol + 0.1% formic acid, pH 3; gradient (min/%B) 0/0 1/0 6/5 30/100 35/100 35.1/0 40/0; remark: listed apart in the source
[19] = RP, Waters CORTECS T3, 100 × 2.1 mm, 2.7 µm, 0.3 mL/min, estimated dead time 0.73 min; A: water + 0.1% formic acid, pH 3; B: methanol + 0.1% formic acid, pH 3; gradient (min/%B) 0/0 1/0 6/5 30/100 35/100 35.1/0 40/0; remark: listed apart in the source
[20] = HILIC, Merck SeQuant ZIC-HILIC, 150 × 2.1 mm, 5 µm, 0.75 mL/min, estimated dead time 0.44 min; A: water + 0.1% acetic acid + 10 mM ammonium acetate, pH 4; B: 5% water + 95% acetonitrile + 0.1% acetic acid + 10 mM ammonium acetate, pH 4; gradient (min/%B) 0/95 5/95 20/57 25/57 30/95 40/95
[21] = RP, Waters ACQUITY UPLC BEH C18, 100 × 2.1 mm, 1.7 µm, 0.2 mL/min, estimated dead time 1.1 min; A: water + 0.025% formic acid + 20 mM ammonium acetate + 0.055% ammonium hydroxide, pH 7; B: methanol; gradient (min/%B) 0/5 5/5 25/100 30/100 30.1/5 35/5; remark: listed apart in the source
[22] = RP, Waters CORTECS T3, 100 × 2.1 mm, 2.7 µm, 0.2 mL/min, estimated dead time 1.1 min; A: water + 0.1% formic acid, pH 3; B: methanol + 0.1% formic acid, pH 3; gradient (min/%B) 0/5 5/5 25/95 25.1/100 35/100 35.1/5 45/5
[23] = RP, Waters CORTECS T3, 100 × 2.1 mm, 2.7 µm, 0.25 mL/min, estimated dead time 0.88 min; A: water + 0.1% formic acid, pH 3; B: methanol + 0.1% formic acid, pH 3; gradient (min/%B) 0/5 5/5 25/95 25.1/100 35/100 35.1/5 45/5
[24] = RP, Waters ACQUITY UPLC BEH C18, 100 × 2.1 mm, 1.7 µm, 0.2 mL/min, estimated dead time 1.1 min; A: water + 0.1% formic acid, pH 3; B: methanol + 0.1% formic acid, pH 3; gradient (min/%B) 0/5 5/5 25/100 30/100 30.1/5 35/5
[25] = RP, Waters ACQUITY UPLC BEH C18, 100 × 2.1 mm, 1.7 µm, 0.1 mL/min, estimated dead time 2.2 min; A: water + 0.1% formic acid, pH 3; B: methanol + 0.1% formic acid, pH 3; gradient (min/%B) 0/5 5/5 25/95 25.1/100 35/100 35.1/5 45/5; remark: listed apart in the source

SMILES	LC retention time [1] [min]	LC retention time [2] [min]	LC retention time [3] [min]	LC retention time [4] [min]	LC retention time [5] [min]	LC retention time [6] [min]	LC retention time [7] [min]	LC retention time [8] [min]	LC retention time [9] [min]	LC retention time [10] [min]	LC retention time [12] [min]	LC retention time [13] [min]	LC retention time [14] [min]	LC retention time [15] [min]	LC retention time [16] [min]	also measured
CCCCCCCCCC(=O)OCC(COP(=O)([O-])OCC[N+](C)(C)C)OC(=O)CCCCCCCCC (centres undefined) [1,2-DIDECANOYL-SN-GLYCERO-3-PHOSPHOCHOLINE]	30.9	29.7	26	24.3	25.3	29.7	29.2	28.7	26	29.8	–	–	–	–	–	–
O=c1cccc[nH]1 [2-HYDROXYPYRIDINE]	5.81	2.75	2.92	1.91	1.89	5.83	3.26	2.69	3.24	4.15	2.85	5.41	5.99	–	–	LC retention time [11]: 2.74 min
CN1CCC[C@H]1c1cccnc1 [(S)-NICOTINE]	1.78	–	11.7	–	–	16.1	1.09	–	11.2	1.34	0.89	–	2.74	4.86	2.66	–
Nc1ncnc2c1ncn2C1CC(O)C(COP(=O)(O)O)O1 (centres undefined) [DAMP]	1.78	2.72	–	–	0.9	–	1.09	0.92	–	1.34	–	–	2.74	–	–	LC retention time [17]: 0.89 min; LC retention time [18]: 1.35 min; LC retention time [19]: 0.92 min; LC retention time [20]: 12.9 min; LC retention time [21]: 1.36 min; LC retention time [22]: 2.67 min; LC retention time [23]: 1.08 min; LC retention time [24]: 1.38 min; LC retention time [25]: 2.7 min
NCCc1c[nH]c2ccc(O)cc12 [SEROTONIN]	–	–	10.7	–	–	13.9	–	–	–	–	–	–	2.74	14.4	2.66	–

The next lines start with results.

LC retention time [1] [min]	LC retention time [2] [min]	LC retention time [3] [min]	LC retention time [4] [min]	LC retention time [5] [min]	LC retention time [6] [min]	LC retention time [7] [min]	LC retention time [8] [min]	LC retention time [9] [min]	LC retention time [10] [min]	LC retention time [12] [min]	LC retention time [13] [min]	LC retention time [14] [min]	LC retention time [15] [min]	LC retention time [16] [min]	SMILES	also measured
–	2.84	–	–	0.9	–	1.09	–	–	–	–	–	–	–	–	Nc1nc2c(ncn2C2OC(COP(=O)(O)O)C(O)C2O)c(=O)[nH]1 (centres undefined) [GUANOSINE 5'-MONOPHOSPHATE]	LC retention time [17]: 0.89 min; LC retention time [18]: 1.35 min; LC retention time [19]: 0.92 min; LC retention time [22]: 2.67 min; LC retention time [23]: 1.08 min; LC retention time [24]: 1.79 min
3.31	2.69	3.68	1.2	1.17	6.91	1.9	1.57	3.89	2.36	1.63	3.38	3.66	24.4	–	NC(=O)c1cccnc1 [NICOTINAMIDE]	–
–	2.66	–	–	–	–	–	–	–	–	–	–	–	5.02	–	C[N+](C)(C)CCOP(=O)([O-])OCC(O)CO (centres undefined) [SN-GLYCERO-3-PHOSPHOCHOLINE]	–
23.9	–	–	18.5	19.1	–	22.1	21.6	–	22.8	18.9	–	22.7	–	23.5	NC(Cc1cc(I)c(Oc2cc(I)c(O)c(I)c2)c(I)c1)C(=O)O (centres undefined) [THYROXINE]	LC retention time [11]: 20.3 min
1.85	2.69	–	0.95	–	–	1.11	–	–	1.36	0.91	2.68	2.76	21.2	–	O=c1cc[nH]c(=O)[nH]1 [URACIL]	–
